Article PMC11012124, “Synthesis of Novel Triazine-Based Chalcones and 8,9-dihydro-7H-pyrimido[4,5-b][1,4]diazepines as Potential Leads in the Search of Anticancer, Antibacterial and Antifungal Agents” (International Journal of Molecular Sciences, 2024)
Values after ≈ are worked out from the molar mass of the structure shown. Read-outs that look alike come from different tables or passages of the source.

How the values were obtained:
[1] = system: Microsporum gypseum (CCC 115); test: Antifungal broth microdilution (CLSI); type: cell-based; details: Nannizzia gypsea; Mg: Microsporum gypseum
Experimental: (§1) Several of the obtained triazine derivatives were evaluated against sensitive fungal species comprising of two yeasts (Candida albicans (ATCC 10231), Cryptococcus neoformans (ATCC 32264)), three dermatophytes (Microsporum gypseum (CCC 115), Trichophyton rubrum (CCC 134-2000), Trichophyton mentagrophytes (CCC 202-2000)), and three Aspergillus fungi ((A. [NT] 26934), A. niger (ATCC 9029), and A. flavus (ATCC 9170)). […] Broth microdilution techniques were performed in 96-well microplates according to the Reference Method for Broth Dilution Antifungal Susceptibility Testing of Yeasts, document M27-A3 [86] and of Filamentous Fungi […]-A8 [87]. […] An inoculum suspension (100 μL) was added to each well (final well volume = 200 μL). One growth control well (containing medium, inoculum, and the same amount of DMSO as used for each compound) and one sterility control well (sample, medium, and sterile water instead of inoculum) were included for each fungus tested. Microtiter plates were incubated in a dark, humid chamber at 30 °C for the time necessary for each fungus. Amphotericin B, Terbinafine, Fluconazole and Itraconazole were used as a positive control. The tests were performed in triplicate.

[2] = system: Trichophyton mentagrophytes (CCC 202-2000); test: Antifungal broth microdilution (CLSI); type: cell-based; details: Tm: Trichophyton mentagrophytes
Experimental: as §1

[3] = system: Trichophyton rubrum (CCC 134-2000); test: Antifungal broth microdilution (CLSI); type: cell-based; details: Tr: Trichophyton rubrum
Experimental: as §1

[4] = system: N. gonorrhoeae ATCC 49226; test: MIC on GC agar plates; type: cell-based, Neisseria gonorrhoeae
Experimental: An initial screening for bacterial inhibition was performed by the agar diffusion method. […] DMSO and TSB were included as negative controls. Gentamicin and trimethoprim sulfamethoxazole were included as a positive control for growth inhibition. Derivatives showing growth inhibition were tested at least twice before being selected for the microdilution test. For N. gonorrhoeae, the agar diffusion method was also used for screening with some modifications. […] Penicillin and tetracycline were used as controls. […] Briefly, GC agar supplemented with 1% isovitalex was prepared with increasing concentrations of the new compounds and inoculated with 10 µL of a bacterial suspension (1 × 10^4 CFU). The lowest concentration of the compound that inhibited bacterial growth was determined as the MIC. Bacterial growth was examined and verified using the oxidase test. The experiments were performed in duplicate in at least two independent assays.

[5] = system: N. gonorrhoeae ATCC 49226; details: control drugs, range in parenthesis; cited from earlier work
60 cancer cell lines = test: NCI-60 one-dose screen (10 μM); type: cell-based; details: Homo sapiens; one dose of 10 μM, mean over 60 cancer cell lines; read-out: Mean Growth Percent (MGP)
Text: Additionally, the mean of the growth percentages (MGP) of each compound against all the 60 cancer cell lines is also reported, which is used as one of the selection criteria to continue with tests at five concentration doses.

A. flavus (ATCC 9170) = test: Antifungal broth microdilution (CLSI); type: cell-based; details: ATCC9170; Afl: Aspergillus flavus
Experimental: as §1

[6] = system: A. fumigatus (ATCC 26934); test: Antifungal broth microdilution (CLSI); type: cell-based; details: ATCC26934; Afu: Aspergillus fumigatus
Experimental: as §1

A. niger (ATCC 9029) = test: Antifungal broth microdilution (CLSI); type: cell-based; details: ATCC9029; Ani: Aspergillus niger
Experimental: as §1

[7] = system: Candida albicans (ATCC 10231); test: Antifungal broth microdilution (CLSI); type: cell-based; details: ATCC10231; Ca: Candida albicans
Experimental: as §1

[8] = system: Cryptococcus neoformans (ATCC 32264); test: Antifungal broth microdilution (CLSI); type: cell-based; details: ATCC32264; Cn: Cryptococcus neoformans
Experimental: as §1

[9] = Hemolytic activity, spectrophotometric; type: cell-based, human; details: human, human red blood cells (huRBC), 5% hematocrit, 200 μg/mL, 37 °C
Galleria mellonella = test: Toxicity in the Galleria mellonella model; details: G. mellonella larvae, at the higher doses
Experimental: G mellonella larvae were cultivated in the laboratory and healthy, beige larvae weighing 150–200 mg, were selected for toxicity assays.

S. aureus ATCC 43300 [10] = test: Antibacterial MIC, microdilution; type: cell-based; details: Staphylococcus aureus; S. aureus ATCC 43300 (MRSA)
S. aureus ATCC 43300 [11] = details: tetracycline; cited from earlier work
[12] = system: M. tuberculosis ATCC 27294; test: Antitubercular broth microdilution MIC; type: cell-based; details: Mycobacterium tuberculosis; M. tuberculosis ATCC 27294 (H37Rv); read-out: Minimum inhibitory concentration (MIC)
[13] = system: human red blood cells (huRBC); test: Hemolytic activity, spectrophotometric; type: cell-based; details: 200 μg/mL, 24 h, 37 °C
[14] = system: Mycobacterium tuberculosis H37Rv; design: method as in PMID 34795867, PMID 35252706, doi:10.1016/j.molstruc.2021.132275, PMID 18811208, doi:10.1016/j.molstruc.2022.132498; details: cited from earlier work
MOLT-4 = test: cells; details: Homo sapiens, MOLT-4, 48 h
HCT-116 = test: cells; details: Homo sapiens, HCT-116, 48 h
CAKI-1 = test: cells; details: Homo sapiens, CAKI-1, 48 h
RXF 393 = test: cells; details: Homo sapiens, RXF 393, 48 h
AChE = system: AChE; design: method as in PMID 34795867, PMID 35252706, doi:10.1016/j.molstruc.2021.132275, PMID 18811208, doi:10.1016/j.molstruc.2022.132498; details: cited from earlier work
[15] = Neisseria gonorrhoeae, ATCC49226, read-out: MIC

Compound | MIC [1] [µg/mL] | MIC [2] [µg/mL] | MIC [3] [µg/mL] | activity at 10 µM (60 cancer cell lines) [%] | MIC [4, 15] [µg/mL] | MIC (A. flavus (ATCC 9170)) [µg/mL] | MIC [6] [µg/mL] | MIC (A. niger (ATCC 9029)) [µg/mL] | MIC [7] [µg/mL] | MIC [8] [µg/mL] | hemolysis at 24 h, 200 µg/mL [9] [%] | other results
CN(C/C=C/C#CC(C)(C)C)Cc1cccc2ccccc12 [Terbinafine, reference compound] | 0.04 (≈ 0.137 µM) | 0.025 (≈ 0.0858 µM) | 0.01 (≈ 0.0343 µM) | – | – | – | – | – | – | – | – | –
Penicillin [reference compound] | – | – | – | – | – | – | – | – | – | – | – | MIC [4]: 0.25 µg/mL; MIC range values for this strain [5]: 0.25 to 1.0 µg/mL
COc1cc(C2CC(c3ccc(S(=O)(=O)NCCNc4nc(N(C)C)nc(N5CCOCC5)n4)cc3)=Nc3c(N)nc(N)nc3N2)cc(OC)c1OC (stereo not shown) [30d] | > 250 | > 250 | 125 (≈ 167 µM) | 95 | 16.1 (≈ 21.5 µM) | > 250 | > 250 | > 250 | > 250 | > 250 | 11 | mortality (Galleria mellonella): ≤ 25%
CN(C)[C@@H]1C(O)=C(C(N)=O)C(=O)[C@@]2(O)C(O)=C3C(=O)c4c(O)cccc4[C@@](C)(O)[C@H]3C[C@@H]12 [Tetracycline, reference compound] | – | – | – | – | 1 (≈ 2.25 µM) | – | – | – | – | – | – | MIC (S. aureus ATCC 43300 [10]): 0.05 µg/mL (≈ 0.113 µM); MIC range (S. aureus ATCC 43300 [11]): 0.05 to 0.25 µg/mL; MIC range values for this strain [5]: 0.25 to 1.0 µg/mL
COc1cc(C2CC(c3cc(OC)c(OC)c(OC)c3)=Nc3c(N)nc(N)nc3N2)ccc1Oc1nc(Nc2ccc(F)cc2)nc(N(C)C)n1 (stereo not shown) [29d] | – | – | – | 54.5 | 16.1 (≈ 23.1 µM) | – | – | – | – | – | > 75 | MIC [12]: 5 µg/mL (≈ 7.17 µM); % Hemolysis [13]: 75%
O=C(/C=C/c1ccc(F)cc1F)c1ccc(Nc2nc(Cl)nc(Cl)n2)cc1 [compound 3] | – | – | – | – | – | – | – | – | – | – | – | MIC [14]: 3.125 µg/mL (≈ 7.67 µM)
C[C@@H]1[C@H](O)[C@@H](C)/C=C/C=C/C=C/C=C/C=C/C=C/C=C/[C@H](O[C@@H]2O[C@H](C)[C@@H](O)[C@H](N)[C@@H]2O)C[C@@H]2O[C@](O)(C[C@@H](O)C[C@@H](O)[C@H](O)CC[C@@H](O)C[C@@H](O)CC(=O)O[C@H]1C)C[C@H](O)[C@H]2C(=O)O [Amphotericin B, reference compound] | 0.125 (≈ 0.135 µM) | 0.075 (≈ 0.0812 µM) | 0.075 (≈ 0.0812 µM) | – | – | 0.5 (≈ 0.541 µM) | 0.5 (≈ 0.541 µM) | 0.5 (≈ 0.541 µM) | 0.5 (≈ 0.541 µM) | 0.25 (≈ 0.271 µM) | – | –
COc1cc(C2CC(c3ccc(C(F)(F)F)cc3)=Nc3c(N)nc(N)nc3N2)ccc1Oc1nc(Nc2ccc(F)cc2)nc(N(C)C)n1 (stereo not shown) [29g] | 125 (≈ 185 µM) | > 250 | > 250 | 40.9 | ≥ 500 | > 250 | > 250 | > 250 | > 250 | > 250 | – | MIC [12]: 5 µg/mL (≈ 7.4 µM); GI50 (MOLT-4): 1.71 µM; CC50 (MOLT-4; read-out: LC50): > 100 µM; GI50 (HCT-116): 1.76 µM; CC50 (HCT-116; read-out: LC50): 7.56 µM; GI50 (CAKI-1): 1.65 µM; CC50 (CAKI-1; read-out: LC50): > 100 µM; GI50 (RXF 393): 1.22 µM; CC50 (RXF 393; read-out: LC50): 34.1 µM
CC(=O)c1ccc(S(=O)(=O)NCCNc2nc(N(C)C)nc(N3CCOCC3)n2)cc1 [compound 17] | > 250 | > 250 | 125 (≈ 278 µM) | 108 | – | > 250 | > 250 | > 250 | > 250 | > 250 | 1.6 | –
COc1cc(C2CC(c3ccc(F)cc3)=Nc3c(N)nc(N)nc3N2)ccc1Oc1nc(Nc2ccc(F)cc2)nc(N(C)C)n1 (stereo not shown) [29f] | 125 (≈ 200 µM) | > 250 | > 250 | 45.2 | 0.5 (≈ 0.799 µM) | > 250 | > 250 | > 250 | > 250 | > 250 | 0 | MIC [12]: 2.5 µg/mL (≈ 4 µM)
OC(Cn1cncn1)(Cn1cncn1)c1ccc(F)cc1F [Fluconazole, reference compound] | – | – | – | – | – | – | – | – | 0.03 (≈ 0.098 µM) | 0.25 (≈ 0.816 µM) | – | –
COc1ccc(C2=Nc3c(N)nc(N)nc3NC(c3ccc(Oc4nc(Nc5ccc(F)cc5)nc(N(C)C)n4)c(OC)c3)C2)cc1 (stereo not shown) [29c] | 125 (≈ 196 µM) | > 250 | > 250 | 64.2 | 62.5 (≈ 98 µM) | > 250 | > 250 | > 250 | > 250 | > 250 | 2.9 | MIC [12]: 1.2 µg/mL (≈ 1.88 µM)
CN(c1nc(Cl)nc(N2CCN(Cc3nc4ccccc4[nH]3)CC2)n1)C1CCCCC1 [compound 2] | – | – | – | – | – | – | – | – | – | – | – | IC50 (AChE): 0.044 µM
COc1cc(C2CC(c3ccc(C(F)(F)F)cc3)=Nc3c(N)nc(N)nc3N2)ccc1Oc1nc(NCCO)nc(N2CCOCC2)n1 (stereo not shown) [28g] | – | – | – | 99.4 | 8 (≈ 12 µM) | – | – | – | – | – | – | % Hemolysis [13]: 100%
